From patent publication US7067619B2, “Integrin-binding peptides” (La Jolla Cancer Research Foundation, priority 1993, dated 2006)
Bridge positions count the residues as written; N and C are the ends. Peptide text beside a SMILES is read from it.

Experiments:
[1] = test system: α5β1 integrin; assay: Inhibition of attachment of CHO C11 cells to fibronectin; assay type: cell-based, Chinese hamster
From the text: Cell lines expressing different integrins were used to examine peptide inhibition of integrin function. A human melanoma cell line, C8161, a fibroblast cell line, WI-38, and an osteosarcoma cell line, MG-63 (described by Seftor et al., Canc. Res., 53:3411–3415 (1993); Vogel et al., J. Biol. Chem., 265:5934–5937 (1990); and Pytela et al. (1985), supra, respectively, each of which is incorporated herein by reference) attach to fibronectin through α5β1 integrin, as does B2/α27, a CHO cell line transfected with human α5. B2/C1, the control parental CHO line (Bauer et al., J. Cell. Biol. 116:477–487 (1992), which is incorporated herein by reference), attaches via […]. CHO cells C11 and NIH 3T3 cells express the endogenous Chinese hamster and mouse α5β1 integrins, respectively. The human melanoma cells, A375-M, attach to fibronectin through both α5β1 and α4β1 integrins (Mould et al., J. Biol. Chem. 265:4020–4024 (1990), which is incorporated herein by reference). CHO cell line B2/v7 express the αvβ1 integrin (Zhang et al., J. Cell. Biol. 122:235–242 (1993), which is incorporated herein by reference). […]
Cell lines expressing fibronectin-binding integrins were used to determine peptide activities against these integrins in the cell attachment assay described by Ruoslahti et al., Meth. […] Bound cells were quantitated by staining with 0.1% amido black.

[2] = target: T1, αvβ5 integrin (Homo sapiens, UniProt P06756+P18084); assay: Panning and binding of peptide-displaying phage on αvβ5 integrin; set-up: The αvβ3, αvβ5 and α5β1 integrins were isolated from human placental extracts; from tissue; host or cells: human placenta
From the text: (§1) In addition, most of the phage-binding activity in the αvβ3 preparation was captured into microliter wells coated with antibodies against the αv or β3 subunits as described previously (Koivunen et al., J. Biol. Chem., 268:20205–10 (1993). The αIIbβ3 integrin was isolated from outdated platelets (Pytela et al., Science, 231:1559–1562 (1986)).
Peptide libraries were constructed in fuse 5 vector (Scott and Smith, Science 249:386–390 (1990)) as described previously (Koivunen et al., J. Cell Biol., 124:373–380 (1994). The CX5C, CX6C, CX7C and CX9 [SEQ ID NOs:39–42, respectively] libraries were prepared using synthetic oligonucleotides containing core sequences TGT(NNK)5TGT, TGT(NNK)6TGT, TGT(NNK)7TGT and TGT(NNK)9 [SEQ ID NOS:43–46, respectively] (N=equal molar mixture of A, C, G, T; K=G or T), respectively. The oligonucleotides were made double-stranded by PCR amplification with 5 cycles, purified and ligated to the N-terminus of pIII gene of fuse 5 vector. […]
Binding of individual cloned phage to integrins was studied in microliter wells as described in Koivunen et al., J. Cell. […] Phage that were bound were determined by their ability to infect F-pilus positive K91kan bacteria. Bacteria were grown overnight in microliter wells in the presence of tetracycline and the absorbance indicative of bacterial growth was read at 600 nm with an ELISA plate reader.

[3] = target: T1, αvβ5 integrin; assay: Inhibition of peptide-displaying phage binding to αvβ5 integrin by synthetic peptides; set-up: The αvβ3, αvβ5 and α5β1 integrins were isolated from human placental extracts; from tissue; host or cells: human placenta; conditions: more potent than *CRGDC*; FIG. 10
Method: Phage containing the […] [SEQ ID NO:10] sequence were incubated for 1 hour in integrin-coated wells in the presence of the competing peptides or dimethyl sulfoxide solvent as a control. The bound phage were determined as described herein.
as §1
Binding of individual cloned phage to integrins was studied in microliter wells as described in Koivunen et al., J. Cell. Biol., 124:373–380 (1994). Phage binding to α5β1 and αvβ3 were assayed in TBS buffer containing 1% BSA and 1 mM MnCl2 and binding to αvβ5 in the presence of 1 mM CaCl2. Phage that were bound were determined by their ability to infect F-pilus positive K91kan bacteria. Bacteria were grown overnight in microliter wells in the presence of tetracycline and the absorbance indicative of bacterial growth was read at 600 nm with an ELISA plate reader.

T1 sequence (P06756 31-889 limits assumed): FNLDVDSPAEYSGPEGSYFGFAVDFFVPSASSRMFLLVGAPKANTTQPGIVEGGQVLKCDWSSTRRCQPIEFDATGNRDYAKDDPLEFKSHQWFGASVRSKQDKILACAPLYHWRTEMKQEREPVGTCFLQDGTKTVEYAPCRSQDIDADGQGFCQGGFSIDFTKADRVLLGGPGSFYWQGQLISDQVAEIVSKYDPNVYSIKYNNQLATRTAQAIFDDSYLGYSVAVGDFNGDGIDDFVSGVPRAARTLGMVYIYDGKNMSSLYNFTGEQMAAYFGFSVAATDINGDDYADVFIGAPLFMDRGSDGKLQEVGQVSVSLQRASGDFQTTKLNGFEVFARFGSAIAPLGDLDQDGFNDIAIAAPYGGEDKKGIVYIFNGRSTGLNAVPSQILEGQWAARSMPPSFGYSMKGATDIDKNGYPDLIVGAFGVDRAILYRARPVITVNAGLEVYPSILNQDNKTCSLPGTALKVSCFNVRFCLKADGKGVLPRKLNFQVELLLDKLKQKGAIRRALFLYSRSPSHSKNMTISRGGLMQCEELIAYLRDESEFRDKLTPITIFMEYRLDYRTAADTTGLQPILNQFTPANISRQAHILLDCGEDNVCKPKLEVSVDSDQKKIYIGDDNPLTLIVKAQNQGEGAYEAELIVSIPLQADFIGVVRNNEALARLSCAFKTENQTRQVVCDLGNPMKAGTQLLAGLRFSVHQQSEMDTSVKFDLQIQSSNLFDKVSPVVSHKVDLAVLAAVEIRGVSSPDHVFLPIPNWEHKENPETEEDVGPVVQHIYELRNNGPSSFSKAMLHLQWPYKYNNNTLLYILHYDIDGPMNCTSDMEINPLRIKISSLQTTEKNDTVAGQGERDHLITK
T1 sequence (P06756 891-1048 partner limits assumed): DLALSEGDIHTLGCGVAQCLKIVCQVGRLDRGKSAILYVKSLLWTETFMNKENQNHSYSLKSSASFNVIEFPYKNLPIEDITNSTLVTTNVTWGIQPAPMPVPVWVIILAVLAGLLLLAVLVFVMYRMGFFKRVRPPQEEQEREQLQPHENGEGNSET
T1 sequence (P18084 24-799): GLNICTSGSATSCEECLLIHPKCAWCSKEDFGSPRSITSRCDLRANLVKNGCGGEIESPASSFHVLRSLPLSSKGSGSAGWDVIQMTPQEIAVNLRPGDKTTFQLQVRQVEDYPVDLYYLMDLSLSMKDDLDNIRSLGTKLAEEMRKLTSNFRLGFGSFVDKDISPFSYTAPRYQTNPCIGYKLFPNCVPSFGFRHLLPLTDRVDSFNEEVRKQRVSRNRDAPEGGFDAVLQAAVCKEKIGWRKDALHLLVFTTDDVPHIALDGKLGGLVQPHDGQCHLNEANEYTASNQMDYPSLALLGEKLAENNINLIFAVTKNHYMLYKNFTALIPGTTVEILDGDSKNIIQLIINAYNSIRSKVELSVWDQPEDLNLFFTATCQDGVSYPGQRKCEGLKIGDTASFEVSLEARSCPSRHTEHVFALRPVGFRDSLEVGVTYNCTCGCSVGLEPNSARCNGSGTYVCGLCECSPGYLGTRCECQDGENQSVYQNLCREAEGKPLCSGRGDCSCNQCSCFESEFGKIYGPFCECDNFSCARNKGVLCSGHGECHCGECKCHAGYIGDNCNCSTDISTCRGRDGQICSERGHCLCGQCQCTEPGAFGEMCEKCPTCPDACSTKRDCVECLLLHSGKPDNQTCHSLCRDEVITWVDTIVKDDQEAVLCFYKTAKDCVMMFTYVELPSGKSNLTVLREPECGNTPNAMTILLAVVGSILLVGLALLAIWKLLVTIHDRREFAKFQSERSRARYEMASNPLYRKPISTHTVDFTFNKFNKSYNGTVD

Molecule | blocking of attachment of CHO C11 cells to fibronectin [1] | integrin preference of phage expressing the peptide ([2]; phage attachment experiments) | binding of peptide-displaying phage to the αvβ5 integrin ([2]; phage-displayed sequence) | potency in inhibiting binding of RGD-containing phage to αvβ5 relative to *CRGDC* [3] [fold]
GACRRETAWACGA | could not block |  |  | 
C[C@H](N)C(=O)N[C@H]1CSSC[C@@H](C(=O)NCC(=O)O)NC(=O)[C@H](Cc2ccccc2)NC(=O)[C@@H]2CSSC[C@H](NC(=O)[C@H](CC(=O)O)NC1=O)C(=O)N[C@@H](CCCNC(=N)N)C(=O)NCC(=O)N[C@@H](CC(=O)O)C(=O)N2 (H-ACDCRGDCFCG-OH; disulfide 2-10, 4-8) |  | bound preferentially to the αvβ5 integrin | bound strongly | 10
